Assay results reported in patent US12029816B2, “Compositions and methods of making brittle-matrix particles through blister pack freezing” (BOARD OF REGENTS, THE UNIVERSITY OF TEXAS SYSTEM, priority 2010, dated 2024).

Settings: pH 7.4
Method: HFA-exposed TFF ITZ powder (1 mg) was added to 50 mL of dissolution media to yield an initial drug loading of 20 μg/mL. Sample aliquots (1.5 mL) were taken from the dissolution vessels at various time points. The aliquots were filtered immediately using a 0.2 μm syringe filter. […] TFF ITZ powder that had been previously exposed to HFA 227 (1 mg) was added to the dissolution media (50 mL) to achieve an initial loading of 20 μg ITZ/mL. All samples were filtered with 0.2 μm pore size filters.

An equilibrium solubility of 1.4 µg/mL was found for `CCC(C)n1ncn(-c2ccc(N3CCN(c4ccc(OCC5COC(Cn6cncn6)(c6ccc(Cl)cc6Cl)O5)cc4)CC3)cc2)c1=O` (stereo not shown) [crystalline ITZ, itraconazole] in this work.
